The values below come from US4432982A, “Polycyclic compounds substituted on the A-ring, pharmaceutical compositions containing them, and methods of treating psoriasis with them” (Richter Gedeon Vegyeszeti Gyar Rt., priority 1981, dated 1984).

In this assay the test system is phosphodiesterase isolated from cattle heart. Briefly: Phosphodiesterase inhibition, radioisotope method with 3H-c-AMP, enzyme isolated from cattle heart. To be noted: control without inhibitor = 100%, 20 minutes incubation. Type of assay: biochemical. The procedure:
The model experiments were performed by means of phosphodiesterase isolated from animal tissues (rat brain, cattle brain, cattle heart). The enzyme was isolated by the technique of J. Schroder and H. V. Richenberg [Biochem. Biophys. […] The measurement was first carried out without the inhibiting substance and then in the presence of one of the compounds of the general formula (I) as an inhibiting agent, after an incubation period of 20 minutes [N.S. Arch. […] A solution of papaverine used as reference material was added to the enzyme preparate in an analogous manner.
The activity of the solutions containing the compounds of formula (I) and papaverine was expressed in percents of the control (enzyme solution without any inhibitor substance, the activity thereof was taken 100%).

The mark [1] stands for this setting: 1 × 10^-5 mole/lit. test compound, 10 µM.
The mark [2] stands for this setting: 5 × 10^-5 mole/lit. test compound, 50 µM.
Where [3] appears, read: 5 × 10^-6 mole/lit. test compound, 5 µM.

Where a name gives a salt, the structure may show the parent alone.

Regarding `CC[C@@]12C=C(COC(=O)c3cc(OC)c(OC)c(OC)c3)n3c4c(c5ccc(Br)cc53)CCN(CCC1)[C@H]42` [(-)-11-Bromo-apovincaminol-3',4',5'-trimethoxy-benzoate hydrochloride], the “effect of the test compound on enzyme activity in % of the control” value (“effect … in % of the control” for short) is, setting by setting: under setting [1], 21.8%; under setting [2], 21.8%; under setting [3], 31.9%.

On to `CC[C@@]12C=C(COC(=O)c3cc(OC)c(OC)c(OC)c3)n3c4c(c5cc(Br)ccc53)CCN(CCC1)[C@H]42` [10-Bromo-apovincaminol-3',4',5'-trimethoxy-benzoate], for which the “effect … in % of the control” value is, setting by setting: under setting [1], 61.8%; under setting [3], 67.8%.

`CC[C@@]12C=C(COC(=O)c3cc(OC)c(OC)c(OC)c3)n3c4c(c5cc(OC)ccc53)CCN(CCC1)[C@H]42` [10-Methoxy-apovincaminol-3',4',5'-trimethoxybenzoate]: the “effect … in % of the control” value is, setting by setting: under setting [1], 40.3%; under setting [2], 21.3%; under setting [3], 59.1%.

`COc1ccc(Cc2nccc3cc(OC)c(OC)cc23)cc1OC` [Papaverine HCl, reference compound]: the “effect … in % of the control” value reads like this: under setting [1], 82.7%; under setting [2], 43.7%; under setting [3], 91.3%.
